In US12161649B2, “Inhibitors of EGFR and methods of use thereof” (DANA-FARBER CANCER INSTITUTE, INC., priority 2018, dated 2024):
Like-named read-outs stand apart in the source and are kept apart here.

How the values were obtained:
[1] = molecular target: T1, recombinant EGFR 790M/L858R kinase (Homo sapiens, UniProt P00533, L858R/T790M); test: HTRF-based EGFR biochemical assay
T1 construct: Constructs spanning residues 696-1022 of the human EGFR; GST (cleaved yes); made in house; host or cells: Sf9 insect cells
T1 sequence (P00533 696-1022 T790M/L858R): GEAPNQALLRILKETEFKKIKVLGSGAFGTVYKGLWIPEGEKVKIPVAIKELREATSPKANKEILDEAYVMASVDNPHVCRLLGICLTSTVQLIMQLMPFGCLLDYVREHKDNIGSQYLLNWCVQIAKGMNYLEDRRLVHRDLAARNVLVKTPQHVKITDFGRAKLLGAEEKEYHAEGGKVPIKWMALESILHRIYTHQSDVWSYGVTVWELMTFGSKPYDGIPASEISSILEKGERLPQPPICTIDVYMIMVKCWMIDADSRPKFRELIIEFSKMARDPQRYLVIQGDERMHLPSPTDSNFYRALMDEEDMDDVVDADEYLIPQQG
Method: EGFR biochemical assays are carried out using a homogeneous time-resolved fluorescence (HTRF) assay. The reaction mixtures contain biotin-Lck-peptide substrate, wild type, or mutant EGFR enzyme in reaction buffer. Enzyme concentrations are adjusted to accommodate varying kinase activity and ATP concentrations. Compounds of the present application are diluted into the assay mixture and IC50 values are determined using 12-point inhibition curves.
Constructs spanning residues 696-1022 of the human EGFR (including wild type and L858R, L858R/T790M, T790M, and T790M/V948R mutant sequences) were prepared in a GST-fusion format using the pTriEX system (Novagen) for expression in Sf9 insect cells essentially as described (Yun et al., PNAS 105, 2070-2075 (2008): Yun et al., Cancer Cell 11, 217-227 (2007)). EGFR kinase proteins were purified by glutathione-affinity chromatography followed by size-exclusion chromatography after cleavage with TEV or thrombin to remove the GST fusion partner following established procedures. (Yun 2008; Yun 2007).
EGFR biochemical assays were carried out using a homogeneous time-resolved fluorescence (HTRF) assay as described previously. The reaction mixtures contained 1 μM biotin-Lck-peptide substrate, wild type or mutant EGFR enzyme in reaction buffer (50 mM HEPES pH 7.1, 10 mM MgCl2, 0.01% BSA, 1 mM TCEP and 0.1 mM […]) at a final volume of 10 μL. Enzyme concentrations were adjusted to accommodate varying kinase activity and ATP concentrations (0.2-0.4 nM L858R/T790M; or 2-4 nM L858R, or 2-4 nM T790M, or 40 nM WT). All reactions were carried out at room temperature in white ProxiPlate™ 384-well Plus plates (PerkinElmer) and were quenched with 5 μL of 0.2 M EDTA at 60 min. Five μL per well of the detection reagent containing 2.5 ng PT66K (Cis-bio) and 0.05 μg SAXL (Prozyme) were added, and the plates were then incubated at room temperature for 1 hour and read with an EnVision plate reader. For IC50 determinations, compounds of the present application were diluted into assay mixture (final DMSO 0.5%), and IC50 values were determined by 12-point inhibition curves (from 50 to 0.000282 μM) in duplicate under the assay conditions as described above.

[2] = molecular target: T2, T790M/L858R Ba/F3 cells (Homo sapiens, UniProt P00533, T790M/L858R, cells depend on it); test: Ba/F3 cell proliferation (MTS assay); format: cell-based, murine; conditions: antiproliferative activity
T2 construct: The constructs were shuttled into the retroviral vector JP1540 using the BD Creator® System (BD Biosciences)
T2 sequence (P00533 whole entry T790M/L858R): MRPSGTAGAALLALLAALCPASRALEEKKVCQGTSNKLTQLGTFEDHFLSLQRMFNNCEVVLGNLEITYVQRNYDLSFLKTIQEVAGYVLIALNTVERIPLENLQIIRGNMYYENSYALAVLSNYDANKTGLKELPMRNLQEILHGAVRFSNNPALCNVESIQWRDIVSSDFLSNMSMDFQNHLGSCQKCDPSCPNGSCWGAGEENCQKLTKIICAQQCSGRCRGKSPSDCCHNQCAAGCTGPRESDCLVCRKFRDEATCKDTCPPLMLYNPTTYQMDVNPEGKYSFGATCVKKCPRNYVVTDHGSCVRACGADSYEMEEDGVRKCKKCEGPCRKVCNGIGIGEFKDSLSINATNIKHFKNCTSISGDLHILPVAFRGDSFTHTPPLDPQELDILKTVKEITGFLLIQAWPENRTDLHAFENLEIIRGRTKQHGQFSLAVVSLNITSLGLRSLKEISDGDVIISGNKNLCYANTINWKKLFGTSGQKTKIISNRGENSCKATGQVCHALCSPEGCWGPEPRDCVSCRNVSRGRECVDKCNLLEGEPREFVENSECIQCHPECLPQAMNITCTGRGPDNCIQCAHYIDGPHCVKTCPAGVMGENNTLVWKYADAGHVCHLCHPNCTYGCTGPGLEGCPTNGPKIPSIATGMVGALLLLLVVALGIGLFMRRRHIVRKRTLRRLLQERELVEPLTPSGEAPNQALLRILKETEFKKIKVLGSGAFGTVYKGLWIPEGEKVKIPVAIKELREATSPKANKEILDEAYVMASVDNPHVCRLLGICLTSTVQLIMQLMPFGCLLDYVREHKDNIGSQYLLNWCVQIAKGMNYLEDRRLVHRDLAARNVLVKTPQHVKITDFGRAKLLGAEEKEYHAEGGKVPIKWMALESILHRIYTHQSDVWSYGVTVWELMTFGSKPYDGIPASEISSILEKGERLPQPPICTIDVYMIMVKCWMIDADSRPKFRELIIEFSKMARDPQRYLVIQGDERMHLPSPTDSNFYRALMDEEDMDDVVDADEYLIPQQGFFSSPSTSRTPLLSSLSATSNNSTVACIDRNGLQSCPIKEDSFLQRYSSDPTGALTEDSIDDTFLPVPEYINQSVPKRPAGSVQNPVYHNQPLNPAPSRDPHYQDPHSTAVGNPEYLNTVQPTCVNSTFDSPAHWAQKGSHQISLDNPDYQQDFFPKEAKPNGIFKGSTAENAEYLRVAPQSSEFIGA
Method: The EGFR mutant L858R, Del E746_A750, L858R/T790M, DelE746_A750/T790M, L858R/T790M/C797S and Del/T790M/C797S Ba/F3 cells were previously described (Zhou et al., Nature 462, (2009), 1070-1074). All cell lines were maintained in RPMI 1640 (Cellgro; Mediatech Inc., Herndon, CA) supplemented with 10% FBS 100 units/mL penicillin, 100 units/mL streptomycin, and 2 mM glutamine. L858R cells were maintained in ACL-4 media (Invitrogen, Carlsbad, CA) supplemented with 5% FBS, 100 units/mL penicillin, 100 units/mL streptomycin, and 2 mM glutamine. The EGFR 1941R mutation was introduced via site directed mutagenesis using the Quick Change Site-Directed Mutagenesis kit (Stratagene; La Jolla, CA) according to the manufacturer's instructions. All constructs were confirmed by DNA sequencing. The constructs were shuttled into the retroviral vector JP1540 using the BD Creator® System (BD Biosciences). Ba/F3 cells were infected with retrovirus and according to standard protocols, as described previously (Zhou 2009). Stable clones were obtained by selection in puromycin (2 μg/ml).
Growth and inhibition of growth was assessed by MTS assay and was performed according to previously established methods (Zhou 2009). The MTS assay is a colorimetric method for determining the number of viable cells that is based on the bioreduction of MTS by cells to a formazan product that is soluble in cell culture medium and can be detected spectrophotometrically. Ba/F3 cells of different EGFR genotypes were exposed to treatment and the number of cells used per experiment determined empirically and has been previously established (Zhou 2009). All experimental points were set up in six wells and all experiments were repeated at least three times. […] The curves were fitted using a non-linear regression model with a sigmoidal dose response.

[3] = absence of cetuximab, read-out: Ba/F3 cellular activity (EC50) T790M/L858R
[4] = read-out: Ba/F3 cellular activity (EC50) T790M/L858R + Cetuximab, presence of 1 μg/mL cetuximab

| IC50 [1] [µM] | EC50 [2, 3] [µM] | EC50 [2, 4] [µM] | Compound |
| --- | --- | --- | --- |
| > 0.75 | > 0.75 | > 0.75 | COc1cc(N2CCOCC2)ccc1C(=O)N[C@H]1CNc2ccc(F)cc2N(Cc2ccccc2)C1=O [Compound I-5, (S)-N-(1-benzyl-8-fluoro-2-oxo-2,3,4,5-tetrahydro-1H-benzo[b][1,4]diazepin-3-yl)-2-methoxy-4-morpholinobenzamide] |
| > 0.75 | > 0.75 | > 0.75 | O=C(Cc1ccc(-n2cnnn2)cc1)N[C@H]1CNc2ccc(F)cc2N(Cc2ccccc2)C1=O [Compound I-9, (S)-2-(4-(1H-tetrazol-1-yl)phenyl)-N-(1-benzyl-8-fluoro-2-oxo-2,3,4,5-tetrahydro-1H-benzo[b][1,4]diazepin-3-yl)acetamide] |
| > 0.75 | > 0.75 | > 0.75 | CN1CCN(c2ccc3c(c2)C(=O)N([C@H]2CNc4ccc(F)cc4N(Cc4ccccc4)C2=O)C3)CC1 [Compound I-13, (S)-1-benzyl-8-fluoro-3-(6-(4-methylpiperazin-1-yl)-1-oxoisoindolin-2-yl)-1,3,4,5-tetrahydro-2H-benzo[b][1,4]diazepin-2-one] |
| > 0.75 | > 0.75 | > 0.75 | CN1CCN(c2cccc(C(=O)N[C@H]3CNc4ccc(F)cc4N(Cc4ccccc4)C3=O)c2)CC1 [Compound I-4, (S)-N-(1-benzyl-8-fluoro-2-oxo-2,3,4,5-tetrahydro-1H-benzo[b][1,4]diazepin-3-yl)-3-(4-methylpiperazin-1-yl)benzamide] |
| > 0.75 | > 0.75 | > 0.75 | CN1CCN(c2ccc(C(=O)N[C@H]3CNc4ccc(F)cc4N(Cc4ccccc4)C3=O)cc2)CC1 [Compound I-1, (S)-N-(1-benzyl-8-fluoro-2-oxo-2,3,4,5-tetrahydro-1H-benzo[b][1,4]diazepin-3-yl)-4-(4-methylpiperazin-1-yl)benzamide] |
| > 0.75 | > 0.75 | > 0.75 | O=C(N[C@H]1CNc2ccc(F)cc2N(Cc2ccccc2)C1=O)c1ccc(N2CCOCC2)cn1 [Compound I-8, (S)-N-(1-Benzyl-8-fluoro-2-oxo-2,3,4,5-tetrahydro-1H-benzo[b][1,4]diazepin-3-yl)-5-morpholinopicolinamide] |
| > 0.75 | > 0.75 | > 0.75 | O=C(Cc1ccc(N2CCOCC2)cc1)N[C@H]1CNc2ccc(F)cc2N(Cc2ccccc2)C1=O [Compound I-3, (S)-N-(1-benzyl-8-fluoro-2-oxo-2,3,4,5-tetrahydro-1H-benzo[b][1,4]diazepin-3-yl)-2-(4-morpholinophenyl)acetamide] |
| < 0.25 | > 0.75 | < 0.25 | CN1CCN(c2ccc(-c3ccc4c(c3)C(=O)N([C@H]3CNc5ccc(F)cc5N(Cc5ccccc5)C3=O)C4)cc2)CC1 [Compound I-11, (S)-1-benzyl-8-fluoro-3-(6-(4-(4-methylpiperazin-1-yl)phenyl)-1-oxoisoindolin-2-yl)-1,3,4,5-tetrahydro-2H-benzo[b][1,4]diazepin-2-one] |
| > 0.75 | > 0.75 | > 0.75 | COc1ccc(C2=CCNCC2)cc1C(=O)N[C@H]1CNc2ccc(F)cc2N(Cc2ccccc2)C1=O [Compound I-7, (S)-N-(1-benzyl-8-fluoro-2-oxo-2,3,4,5-tetrahydro-1H-benzo[b][1,4]diazepin-3-yl)-2-methoxy-5-(1,2,3,6-tetrahydropyridin-4-yl)benzamide] |
| > 0.75 | > 0.75 | > 0.75 | CN1CCN(c2ccnc(C(=O)N[C@H]3CNc4ccc(F)cc4N(Cc4ccccc4)C3=O)c2)CC1 [Compound I-6, (S)-N-(1-benzyl-8-fluoro-2-oxo-2,3,4,5-tetrahydro-1H-benzo[b][1,4]diazepin-3-yl)-4-(4-methylpiperazin-1-yl)picolinamide] |
| > 0.75 | > 0.75 | > 0.75 | CN1CCN(c2ccc(NC(=O)N[C@H]3CNc4ccc(F)cc4N(Cc4ccccc4)C3=O)cc2)CC1 [Compound I-2, (S)-1-(1-benzyl-8-fluoro-2-oxo-2,3,4,5-tetrahydro-1H-benzo[b][1,4]diazepin-3-yl)-3-(4-(4-methylpiperazin-1-yl)phenyl)urea] |
| < 0.25 | > 0.75 | < 0.25 | O=C1[C@@H](N2Cc3ccc(F)cc3C2=O)CNc2ccc(F)cc2N1Cc1ccccc1 [Compound I-10, (S)-1-benzyl-8-fluoro-3-(6-fluoro-1-oxoisoindolin-2-yl)-1,3,4,5-tetrahydro-2H-benzo[b][1,4]diazepin-2-one] |
| < 0.25 | > 0.75 | < 0.25 | CN1CCN(c2ccc(-c3ccc4c(c3)CN([C@H]3CNc5ccc(F)cc5N(Cc5ccccc5)C3=O)C4=O)cc2)CC1 [Compound I-14, (S)-1-benzyl-8-fluoro-3-(5-(4-(4-methylpiperazin-1-yl)phenyl)-1-oxoisoindolin-2-yl)-1,3,4,5-tetrahydro-2H-benzo[b][1,4]diazepin-2-one] |
